Source: US20240218022A1, “ANTI-VISTA MACROCYCLIC PEPTIDES AND COMPOSITIONS” (BRISTOL-MYERS SQUIBB COMPANY, priority 2022, published 2024)
Where two headings read alike, the source gives them in different places. Starred links: 1 amine or outer side, 2 acyl side, 3 side chain; linkers in the order of their positions; H or OH if unused. Positions of bridges follow the written chain, without caps; N, C: chain ends. Non-standard residues stand in square brackets, D forms with d. Residues, ends and D or L forms follow the SMILES beside them. ξ: configuration not given here. Phe(4-CF3) = N[C@@H](Cc1ccc(C(F)(F)F)cc1)C(=O)O; Phe(3-Me) = Cc1cccc(C[C@H](N)C(=O)O)c1; 2Nal = N[C@@H](Cc1ccc2ccccc2c1)C(=O)O; βAsp = O=C(O)[C@H](CC(=O)[*:2])N[*:1]; Cit = NC(=O)NCCC[C@H](N)C(=O)O; Ile(3ξ) = CCC(C)[C@H](N)C(=O)O; NMeL = CN[C@@H](CC(C)C)C(=O)O; Ahp(2) = CCCCC[C@H](N)C(=O)O; NMeNle = CCCC[C@H](NC)C(=O)O; Tle = CC(C)(C)[C@H](N)C(=O)O; NHexGly = CCCCCCNCC(=O)O; Nle = CCCC[C@H](N)C(=O)O; Orn = NCCC[C@H](N)C(=O)O; Aun = NCCCCCCCCCCC(=O)O; Nva = CCC[C@H](N)C(=O)O; AEEA = NCCOCCOCC(=O)O

Biological target: T1, mouse VISTA (mVISTA) (Mus musculus, UniProt Q9D659)
T1 construct: expressed in transfected cells; host or cells: Human embryonic kidney 293T cells
T1 sequence (Q9D659 33-308): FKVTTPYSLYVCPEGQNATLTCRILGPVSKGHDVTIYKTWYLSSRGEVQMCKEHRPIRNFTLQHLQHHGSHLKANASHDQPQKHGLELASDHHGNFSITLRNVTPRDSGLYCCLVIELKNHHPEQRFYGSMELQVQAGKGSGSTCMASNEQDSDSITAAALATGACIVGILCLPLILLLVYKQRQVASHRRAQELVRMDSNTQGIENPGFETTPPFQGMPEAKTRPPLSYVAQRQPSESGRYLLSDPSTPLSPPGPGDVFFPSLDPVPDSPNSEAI
Experiment: Cell-Based Binding High-Content Assay For mVISTA (HC CBA mVISTA)
In short: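 293T cells expressing mouse VISTA, with compounds added either after seeding ("no wash") or before seeding and then washed out after 1 h. Biotinylated peptide 2 nM for 30 min at room temperature, then detection with Alexa 647–streptavidin. After fixation with Hoechst stain, plates were high-content imaged; IC50 from four-parameter logistic fit.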

[1] = cell-based binding high-content assay, mVISTA, the 15th table, read-out: HC CBA mVISTA IC50
[2] = 293T cells expressing mouse VISTA, competition with biotinylated peptide (2 nM), read-out: HC CBA mVISTA IC50
[3] = cell-based binding high-content assay, mVISTA, read-out: HC CBA miPr ISTA IC50

With `CCCCCCN1CC(=O)N[C@@H](Cc2ccc(O)cc2)C(=O)N[C@@H](CCCC)C(=O)N[C@@H](CC(=O)O)C(=O)N[C@@H](CCCNC(N)=O)C(=O)N(C)[C@@H](CCCC)C(=O)N[C@@H](CCCCC)C(=O)N2CCC[C@H]2C(=O)N[C@@H](C(C)C)C(=O)N[C@@H](CC(=O)O)C(=O)N[C@H](C(=O)N[C@@H](CC(=O)O)C(N)=O)CSCC(=O)N[C@@H](Cc2ccc3ccccc3c2)C(=O)N[C@@H](Cc2c[nH]c3ccccc23)C(=O)N[C@@H](CC(=O)O)C1=O` [compound 1242] ({CH2CO}-[2Nal]WD[NHexGly]Y[Nle]D[Cit][NMeNle][Ahp(2)]PVDCD-NH2; thioether N-14) as the molecule, how does the IC50 [1] read?
Its IC50 is 0.0089 µM.

How did the IC50 (the 19th table, scaffold drawing 22, read-out: HC CBA mVISTA IC50) turn out when `CCCCCCN1CC(=O)N[C@@H](Cc2ccc(O)cc2)C(=O)N[C@@H](CCCC)C(=O)N[C@@H](CC(=O)O)C(=O)N[C@@H](CCCN)C(=O)N[C@@H](CC(C)C)C(=O)N[C@@H](CCCCC)C(=O)N2CCC[C@H]2C(=O)N[C@@H](C(C)C)C(=O)N[C@@H](CC(=O)O)C(=O)N[C@H](C(=O)N[C@@H](CO)C(N)=O)CSCC(=O)N[C@@H](Cc2cccc(C)c2)C(=O)N[C@@H](Cc2c[nH]c3ccccc23)C(=O)N[C@@H](CC(=O)O)C1=O` [compound 1427] ({CH2CO}-[Phe(3-Me)]WD[NHexGly]Y[Nle]D[Orn]L[Ahp(2)]PVDCS-NH2; thioether N-14) was run?
The IC50 was 0.0094 µM.

`CCCCCCN1CC(=O)N[C@@H](Cc2ccc(O)cc2)C(=O)N[C@@H](CCCC)C(=O)N[C@@H](CC(=O)O)C(=O)N[C@@H](CCCN)C(=O)N(C)[C@@H](CCCC)C(=O)N[C@@H](CCCCC)C(=O)N2CCC[C@H]2C(=O)N[C@@H](C(C)C)C(=O)N[C@@H](CC(=O)O)C(=O)N[C@H](C(=O)N[C@@H](CC(=O)O)C(N)=O)CSCC(=O)N[C@@H](Cc2ccc3ccccc3c2)C(=O)N[C@@H](Cc2c[nH]c3ccccc23)C(=O)N[C@@H](CC(=O)O)C1=O` [compound 1244] ({CH2CO}-[2Nal]WD[NHexGly]Y[Nle]D[Orn][NMeNle][Ahp(2)]PVDCD-NH2; thioether N-14) was tested. Which IC50 [1] did it give?
The IC50 was 0.0135 µM.

With `CCCCCCN1CC(=O)N[C@@H](Cc2ccc(O)cc2)C(=O)N[C@@H](CCCC)C(=O)N[C@@H](CC(N)=O)C(=O)N[C@@H](CCCNC(=N)N)C(=O)N(C)[C@@H](CCCC)C(=O)N[C@@H](CCCCC)C(=O)N2CCC[C@H]2C(=O)N[C@@H](C(C)C)C(=O)N[C@@H](CC(=O)O)C(=O)N[C@H](C(=O)N[C@@H](CCCCN)C(=O)N[C@@H](CC(N)=O)C(=O)O)CSCC(=O)N[C@@H](Cc2ccccc2)C(=O)N[C@@H](Cc2c[nH]c3ccccc23)C(=O)N[C@@H](CC(=O)O)C1=O` [compound 1128] ({CH2CO}-FWD[NHexGly]Y[Nle]NR[NMeNle][Ahp(2)]PVDCKN-OH; thioether N-14) as the molecule, how does the IC50 (read-out: HC CBA mVISTA IC50) read?
Its IC50 is 0.0157 µM.

Which IC50 (read-out: HC CBA mVISTA IC50) does the source give for `CCCCCCN1CC(=O)N[C@@H](Cc2ccc(O)cc2)C(=O)N[C@@H](CCCC)C(=O)N[C@@H](CC(N)=O)C(=O)N[C@@H](CCCNC(=N)N)C(=O)N(C)[C@@H](CCCC)C(=O)N[C@@H](CCCCC)C(=O)N(C)[C@@H](CC(C)C)C(=O)N[C@@H](C(C)CC)C(=O)N[C@@H](CO)C(=O)N[C@H](C(=O)N[C@@H](CC(=O)NCCOCCOCC(=O)NCCCCCCCCCCC(=O)O)C(=O)O)CSCC(=O)N[C@@H](Cc2ccccc2)C(=O)N[C@@H](Cc2c[nH]c3ccccc23)C(=O)N[C@@H](CC(=O)O)C1=O` (stereo partly shown) [Example 2178] ({CH2CO}-FWD[NHexGly]Y[Nle]NR[NMeNle][Ahp(2)][NMeL][Ile(3ξ)]SC[βAsp][AEEA][Aun]-OH; thioether N-14) here?
Its IC50 is 0.0467 µM.

With `CCCCCCN1CC(=O)N[C@@H](Cc2ccc(O)cc2)C(=O)N[C@@H](CCCC)C(=O)N[C@@H](CC(N)=O)C(=O)N[C@@H](CCCNC(=N)N)C(=O)N(C)[C@@H](CCCC)C(=O)N[C@@H](CCCCC)C(=O)N2CCC[C@H]2C(=O)N[C@@H](C(C)C)C(=O)N[C@@H](CC(=O)O)C(=O)N[C@H](C(=O)N[C@@H](CCCN)C(=O)N[C@@H](CCC(N)=O)C(=O)O)CSCC(=O)N[C@@H](Cc2ccc3ccccc3c2)C(=O)N[C@@H](Cc2c[nH]c3ccccc23)C(=O)N[C@@H](CC(=O)O)C1=O` [compound 1140] ({CH2CO}-[2Nal]WD[NHexGly]Y[Nle]NR[NMeNle][Ahp(2)]PVDC[Orn]Q-OH; thioether N-14) as the molecule, how does the IC50 (read-out: HC CBA mVISTA IC50) read?
Its IC50 is 0.0191 µM.

Which IC50 (293T cells expressing mouse VISTA, competition with biotinylated peptide (2 nM), read-out: CBA mVISTA IC50) does the source give for `CCCCCCN1CC(=O)N[C@@H](Cc2ccc(O)cc2)C(=O)N[C@@H](CCCC)C(=O)N[C@@H](CC(=O)O)C(=O)N[C@@H](CCCNC(=N)N)C(=O)N(C)[C@@H](CCCC)C(=O)N[C@@H](CCCCC)C(=O)N2CCC[C@H]2C(=O)N[C@@H](C(C)C)C(=O)N[C@@H](CC(=O)O)C(=O)N[C@H](C(=O)N[C@@H](CC(=O)O)C(N)=O)CSCC(=O)N[C@@H](Cc2ccccc2)C(=O)N[C@@H](Cc2ccc(O)cc2)C(=O)N[C@@H](CC(=O)O)C1=O` [Example 1073] ({CH2CO}-FYD[NHexGly]Y[Nle]DR[NMeNle][Ahp(2)]PVDCD-NH2; thioether N-14) here?
Its IC50 is 0.0066 µM.

For `CCCCCCN1CC(=O)N[C@@H](Cc2ccc(O)cc2)C(=O)N[C@@H](CCC)C(=O)NCC(=O)N[C@@H](CCCNC(=N)N)C(=O)N[C@@H](CC(C)C)C(=O)N[C@@H](CCCCC)C(=O)N2CCC[C@H]2C(=O)N[C@@H](C(C)C)C(=O)N[C@@H](CO)C(=O)N[C@H](C(=O)NCC(N)=O)CSCC(=O)N[C@@H](Cc2ccccc2)C(=O)N[C@@H](Cc2ccc(O)cc2)C(=O)N[C@@H](CC(=O)O)C1=O` [Example 1060] ({CH2CO}-FYD[NHexGly]Y[Nva]GRL[Ahp(2)]PVSCG-NH2; thioether N-14), which IC50 [2] is on record?
Its IC50 is 0.0299 µM.

With `CCCCCCN1CC(=O)N[C@@H](Cc2ccc(O)cc2)C(=O)N[C@@H](C)C(=O)N[C@@H](CC(N)=O)C(=O)N[C@@H](CCCN)C(=O)N(C)[C@@H](CCCC)C(=O)N[C@@H](CCCCC)C(=O)N2CCC[C@H]2C(=O)N[C@@H](C(C)(C)C)C(=O)N[C@@H](CO)C(=O)N[C@H](C(=O)N[C@@H](CC(=O)NCCOCCOCC(=O)N[C@@H](CC(=O)O)C(=O)NCCOCCOCC(=O)NCCCCCCCCCCC(=O)O)C(=O)O)CSCC(=O)N[C@@H](Cc2ccccc2)C(=O)N[C@@H](Cc2ccc(O)cc2)C(=O)N[C@@H](CC(=O)O)C1=O` [compound 2061] ({CH2CO}-FYD[NHexGly]YAN[Orn][NMeNle][Ahp(2)]P[Tle]SC[βAsp][AEEA]D[AEEA][Aun]-OH; thioether N-14) as the molecule, how does the IC50 [3] read?
Its IC50 is 0.0215 µM.

`CCCCCCN1CC(=O)N[C@@H](Cc2ccc(O)cc2)C(=O)N[C@@H](CC(C)C)C(=O)N[C@@H](CC(N)=O)C(=O)N[C@@H](CCCNC(=N)N)C(=O)N[C@@H](CC(C)C)C(=O)N[C@@H](CCCCC)C(=O)N2CCC[C@H]2C(=O)N[C@@H](C(C)C)C(=O)N[C@@H](C)C(=O)N[C@H](C(=O)NCC(=O)O)CSCC(=O)N[C@@H](Cc2ccccc2)C(=O)N[C@@H](Cc2ccc(O)cc2)C(=O)N[C@@H](CC(=O)O)C1=O` [Example 1008] ({CH2CO}-FYD[NHexGly]YLNRL[Ahp(2)]PVACG-OH; thioether N-14) was tested. Which IC50 [2] did it give?
The IC50 was 0.0349 µM.

For `CCCCCCN1CC(=O)N[C@@H](Cc2ccc(O)cc2)C(=O)N[C@@H](CCCC)C(=O)N[C@@H](CC(N)=O)C(=O)N[C@@H](CCCNC(=N)N)C(=O)N[C@@H](CC(C)C)C(=O)N[C@@H](CCCCC)C(=O)N2CCC[C@H]2C(=O)N[C@@H](C(C)C)C(=O)N[C@@H](CO)C(=O)N[C@H](C(=O)NCC(=O)NCCOCCOCC(=O)N[C@@H](CC(=O)O)C(=O)NCCOCCOCC(=O)NCCCCCCCCCCC(=O)O)CSCC(=O)N[C@@H](Cc2ccc3ccccc3c2)C(=O)N[C@@H](Cc2ccc(O)cc2)C(=O)N[C@@H](CC(=O)O)C1=O` [compound 2007] ({CH2CO}-[2Nal]YD[NHexGly]Y[Nle]NRL[Ahp(2)]PVSCG[AEEA]D[AEEA][Aun]-OH; thioether N-14), which IC50 [3] is on record?
Its IC50 is 0.0196 µM.

Which IC50 (the 20th table, scaffold drawing 23, read-out: HC CBA mVISTA IC50) does the source give for `CCCCCCN1CC(=O)N[C@@H](Cc2ccc(O)cc2)C(=O)N[C@@H](CCCC)C(=O)N[C@@H](CC(N)=O)C(=O)N[C@@H](CCCNC(=N)N)C(=O)N[C@@H](CC(C)C)C(=O)N[C@@H](CCCCC)C(=O)N2CCC[C@H]2C(=O)N[C@@H](C(C)C)C(=O)N[C@@H](CC(=O)O)C(=O)N[C@H](C(=O)NCC(=O)O)CSCC(=O)N[C@@H](Cc2ccc(C(F)(F)F)cc2)C(=O)N[C@@H](Cc2ccc(O)cc2)C(=O)N[C@@H](CC(=O)O)C1=O` [compound 1461] ({CH2CO}-[Phe(4-CF3)]YD[NHexGly]Y[Nle]NRL[Ahp(2)]PVDCG-OH; thioether N-14) here?
Its IC50 is 0.005 µM.

How did the IC50 (read-out: HC CBA mVISTA IC50) turn out when `CCCCCCN1CC(=O)N[C@@H](Cc2ccc(O)cc2)C(=O)N[C@@H](CCCC)C(=O)N[C@@H](CC(N)=O)C(=O)N[C@@H](CCCNC(=N)N)C(=O)N(C)[C@@H](CCCC)C(=O)N[C@@H](CCCCC)C(=O)N2CCC[C@H]2C(=O)N[C@@H](C(C)C)C(=O)N[C@@H](CC(=O)O)C(=O)N[C@H](C(=O)N[C@@H](CCCCN)C(=O)N[C@@H](CCC(N)=O)C(=O)O)CSCC(=O)N[C@@H](Cc2ccc3ccccc3c2)C(=O)N[C@@H](Cc2c[nH]c3ccccc23)C(=O)N[C@@H](CC(=O)O)C1=O` [compound 1137] ({CH2CO}-[2Nal]WD[NHexGly]Y[Nle]NR[NMeNle][Ahp(2)]PVDCKQ-OH; thioether N-14) was run?
Its IC50 is 0.0224 µM.
